Measured values reported in ChEMBL document CHEMBL1136696, “Azalide 3,6-ketals: antibacterial activity and structure-activity relationships of aryl and hetero aryl substituted analogues” (Bioorg Med Chem Lett, 2003).
In brackets after ≈: the same amount, converted by molar mass.

Key:
Assay type in all cases: functional
[1] = system: Escherichia coli; test: In vitro antibacterial activity against Escherichia coli 51A0150
[2] = system: Staphylococcus aureus; test: In vitro antibacterial activity against Staphylococcus aureus 01A0758
[3] = system: Pasteurella multocida; test: In vitro antibacterial activity against Pasteurella multocida 59A0067

| Compound | MIC [1] | MIC [2] | MIC [3] |
| --- | --- | --- | --- |
| CC[C@H]1OC(=O)[C@H](C)[C@H]2OC3(CCN(c4ccc(C(=O)OCc5ccccc5)c(C(F)(F)F)c4)CC3)O[C@](C)(C[C@@H](C)CN(C)[C@H](C)[C@@H](O)[C@]1(C)O)[C@H](O[C@@H]1O[C@H](C)CC(N(C)C)[C@H]1O)[C@H]2C (some centres undefined) | 3.13 µg/mL (≈ 3.29 µM) | 0.78 µg/mL (≈ 0.821 µM) | 0.39 µg/mL (≈ 0.41 µM) |
| CC[C@H]1OC(=O)[C@H](C)[C@H]2OC3(CCN(c4ccc([N+](=O)[O-])cn4)CC3)O[C@](C)(C[C@@H](C)CN[C@H](C)[C@@H](O)[C@]1(C)O)[C@H](O[C@@H]1O[C@H](C)CC(N(C)C)[C@H]1O)[C@H]2C (some centres undefined) | 3.13 µg/mL (≈ 4.01 µM) | 1.56 µg/mL (≈ 2 µM) | 0.39 µg/mL (≈ 0.5 µM) |
| CC[C@H]1OC(=O)[C@H](C)[C@H]2OC3(CCN(c4ccc(C(=O)OCc5ccccc5)cc4)CC3)O[C@](C)(C[C@@H](C)CN(C)[C@H](C)[C@@H](O)[C@]1(C)O)[C@H](O[C@@H]1O[C@H](C)CC(N(C)C)[C@H]1O)[C@H]2C (some centres undefined) | 3.13 µg/mL (≈ 3.55 µM) | 3.13 µg/mL (≈ 3.55 µM) | 0.39 µg/mL (≈ 0.442 µM) |
| CC[C@H]1OC(=O)[C@H](C)[C@H]2OC3(CCN(c4ccc(C(F)(F)F)cn4)CC3)O[C@](C)(C[C@@H](C)CN[C@H](C)[C@@H](O)[C@]1(C)O)[C@H](O[C@@H]1O[C@H](C)CC(N(C)C)[C@H]1O)[C@H]2C (some centres undefined) | 12.5 µg/mL (≈ 15.6 µM) | 1.56 µg/mL (≈ 1.94 µM) | 0.78 µg/mL (≈ 0.971 µM) |
| CC[C@H]1OC(=O)[C@H](C)C2OC3(CCNCC3)O[C@](C)(C[C@@H](C)CN(C)[C@H](C)[C@@H](O)[C@]1(C)O)[C@H](O[C@@H]1O[C@H](C)C[C@H](N(C)C)[C@H]1O)[C@H]2C | 0.39 µg/mL (≈ 0.58 µM) | 6.25 µg/mL (≈ 9.3 µM) | < 0.05 µg/mL |
| CC[C@H]1OC(=O)[C@H](C)[C@H]2OC3(CCN(c4ccc(N)cc4)CC3)O[C@](C)(C[C@@H](C)CN(C)[C@H](C)[C@@H](O)[C@]1(C)O)[C@H](O[C@@H]1O[C@H](C)CC(N(C)C)[C@H]1O)[C@H]2C (some centres undefined) | 12.5 µg/mL (≈ 16.4 µM) | 6.35 µg/mL (≈ 8.32 µM) | 1.56 µg/mL (≈ 2.04 µM) |
| CC[C@H]1OC(=O)[C@H](C)[C@H]2OC3(CCN(c4ccc(S(=O)(=O)c5ccc(F)cc5)cc4)CC3)O[C@](C)(C[C@@H](C)CN(C)[C@H](C)[C@@H](O)[C@]1(C)O)[C@H](O[C@@H]1O[C@H](C)CC(N(C)C)[C@H]1O)[C@H]2C (some centres undefined) | > 50 µg/mL | 3.13 µg/mL (≈ 3.45 µM) | 1.56 µg/mL (≈ 1.72 µM) |
| CCOC(=O)c1ccc(N2CCC3(CC2)O[C@H]2[C@H](C)[C@@H](O[C@@H]4O[C@H](C)CC(N(C)C)[C@H]4O)[C@@](C)(C[C@@H](C)CN[C@H](C)[C@@H](O)[C@](C)(O)[C@@H](CC)OC(=O)[C@@H]2C)O3)nc1 (some centres undefined) | 50 µg/mL (≈ 62 µM) | 6.25 µg/mL (≈ 7.74 µM) | 3.13 µg/mL (≈ 3.88 µM) |
| CC[C@H]1OC(=O)[C@H](C)[C@H]2OC3(CCN(c4ncccn4)CC3)O[C@](C)(C[C@@H](C)CN(C)[C@H](C)[C@@H](O)[C@]1(C)O)[C@H](O[C@@H]1O[C@H](C)CC(N(C)C)[C@H]1O)[C@H]2C (some centres undefined) | 1.56 µg/mL (≈ 2.08 µM) | 1.56 µg/mL (≈ 2.08 µM) | 0.1 µg/mL (≈ 0.133 µM) |
| CC[C@H]1OC(=O)[C@H](C)[C@H]2OC3(CCN(c4cc(C)c([N+](=O)[O-])cn4)CC3)O[C@](C)(C[C@@H](C)CN[C@H](C)[C@@H](O)[C@]1(C)O)[C@H](O[C@@H]1O[C@H](C)CC(N(C)C)[C@H]1O)[C@H]2C (some centres undefined) | 6.25 µg/mL (≈ 7.87 µM) | 0.78 µg/mL (≈ 0.982 µM) | 1.56 µg/mL (≈ 1.96 µM) |
| CC[C@H]1OC(=O)[C@H](C)[C@H]2OC3(CCN(c4ccc(C#N)cc4)CC3)O[C@](C)(C[C@@H](C)CN(C)[C@H](C)[C@@H](O)[C@]1(C)O)[C@H](O[C@@H]1O[C@H](C)CC(N(C)C)[C@H]1O)[C@H]2C (some centres undefined) | 25 µg/mL (≈ 32.3 µM) | 3.13 µg/mL (≈ 4.05 µM) | 0.39 µg/mL (≈ 0.505 µM) |
| CC[C@H]1OC(=O)[C@H](C)[C@H]2OC3(CCN(c4ccc(C(=O)OCc5ccccc5)cc4F)CC3)O[C@](C)(C[C@@H](C)CN[C@H](C)[C@@H](O)[C@]1(C)O)[C@H](O[C@@H]1O[C@H](C)CC(N(C)C)[C@H]1O)[C@H]2C (some centres undefined) | > 50 µg/mL | 0.39 µg/mL (≈ 0.44 µM) | 3.13 µg/mL (≈ 3.53 µM) |
| CC[C@H]1OC(=O)[C@H](C)[C@H]2OC3(CCN(c4nc5ccccc5o4)CC3)O[C@](C)(C[C@@H](C)CN(C)[C@H](C)[C@@H](O)[C@]1(C)O)[C@H](O[C@@H]1O[C@H](C)CC(N(C)C)[C@H]1O)[C@H]2C (some centres undefined) | 6.25 µg/mL (≈ 7.92 µM) | 3.13 µg/mL (≈ 3.97 µM) | 0.78 µg/mL (≈ 0.989 µM) |
| CC[C@H]1OC(=O)[C@H](C)[C@H]2OC3(CCN(c4ccccc4[N+](=O)[O-])CC3)O[C@](C)(C[C@@H](C)CN(C)[C@H](C)[C@@H](O)[C@]1(C)O)[C@H](O[C@@H]1O[C@H](C)CC(N(C)C)[C@H]1O)[C@H]2C (some centres undefined) | 3.13 µg/mL (≈ 3.95 µM) | 1.56 µg/mL (≈ 1.97 µM) | 0.39 µg/mL (≈ 0.492 µM) |
| CC[C@H]1OC(=O)[C@H](C)[C@H]2OC3(CCN(c4ncc(C(=O)OCc5ccccc5)c(C(F)(F)F)n4)CC3)O[C@](C)(C[C@@H](C)CN(C)[C@H](C)[C@@H](O)[C@]1(C)O)[C@H](O[C@@H]1O[C@H](C)CC(N(C)C)[C@H]1O)[C@H]2C (some centres undefined) | > 50 µg/mL | 1.17 µg/mL (≈ 1.23 µM) | > 50 µg/mL |
| CC[C@H]1OC(=O)[C@H](C)[C@H]2OC3(CCN(c4nc(Cl)nc(-c5ccccc5)n4)CC3)O[C@](C)(C[C@@H](C)CN(C)[C@H](C)[C@@H](O)[C@]1(C)O)[C@H](O[C@@H]1O[C@H](C)CC(N(C)C)[C@H]1O)[C@H]2C (some centres undefined) | > 50 µg/mL | 1.56 µg/mL (≈ 1.81 µM) | > 50 µg/mL |
| CC[C@H]1OC(=O)[C@H](C)[C@H]2OC3(CCN(c4ncccc4[N+](=O)[O-])CC3)O[C@](C)(C[C@@H](C)CN[C@H](C)[C@@H](O)[C@]1(C)O)[C@H](O[C@@H]1O[C@H](C)CC(N(C)C)[C@H]1O)[C@H]2C (some centres undefined) | 6.25 µg/mL (≈ 8.01 µM) | 0.78 µg/mL (≈ 1 µM) | 0.2 µg/mL (≈ 0.256 µM) |
| CC[C@H]1OC(=O)[C@H](C)[C@H]2OC3(CCN(c4ccc(NC(=O)c5ccccc5)cc4)CC3)O[C@](C)(C[C@@H](C)CN(C)[C@H](C)[C@@H](O)[C@]1(C)O)[C@H](O[C@@H]1O[C@H](C)CC(N(C)C)[C@H]1O)[C@H]2C (some centres undefined) | 50 µg/mL (≈ 57.7 µM) | 12.5 µg/mL (≈ 14.4 µM) | 1.56 µg/mL (≈ 1.8 µM) |
| CC[C@H]1OC(=O)[C@H](C)[C@H]2OC3(CCN(c4nccs4)CC3)O[C@](C)(C[C@@H](C)CN(C)[C@H](C)[C@@H](O)[C@]1(C)O)[C@H](O[C@@H]1O[C@H](C)CC(N(C)C)[C@H]1O)[C@H]2C (some centres undefined) | 3.13 µg/mL (≈ 4.15 µM) | 3.13 µg/mL (≈ 4.15 µM) | 0.39 µg/mL (≈ 0.517 µM) |
| CC[C@H]1OC(=O)[C@H](C)[C@H]2OC3(CCN(c4ccc([N+](=O)[O-])cn4)CC3)O[C@](C)(C[C@@H](C)CN(C)[C@H](C)[C@@H](O)[C@]1(C)O)[C@H](O[C@@H]1O[C@H](C)CC(N(C)C)[C@H]1O)[C@H]2C (some centres undefined) | 6.25 µg/mL (≈ 7.87 µM) | 3.13 µg/mL (≈ 3.94 µM) | 0.39 µg/mL (≈ 0.491 µM) |
| CC[C@H]1OC(=O)[C@H](C)[C@H]2OC3(CCN(c4ccc(C(N)=O)cn4)CC3)O[C@](C)(C[C@@H](C)CN[C@H](C)[C@@H](O)[C@]1(C)O)[C@H](O[C@@H]1O[C@H](C)CC(N(C)C)[C@H]1O)[C@H]2C (some centres undefined) | 6.25 µg/mL (≈ 8.03 µM) | 1.56 µg/mL (≈ 2.01 µM) | 0.2 µg/mL (≈ 0.257 µM) |
| CC[C@H]1OC(=O)[C@H](C)[C@H]2OC3(CCN(c4nccc(C(F)(F)F)n4)CC3)O[C@](C)(C[C@@H](C)CN(C)[C@H](C)[C@@H](O)[C@]1(C)O)[C@H](O[C@@H]1O[C@H](C)CC(N(C)C)[C@H]1O)[C@H]2C (some centres undefined) | 12.5 µg/mL (≈ 15.3 µM) | 6.25 µg/mL (≈ 7.64 µM) | 1.56 µg/mL (≈ 1.91 µM) |
| CC[C@H]1OC(=O)[C@H](C)[C@H]2OC3(CCN(c4cc(CO)cc(Cl)n4)CC3)O[C@](C)(C[C@@H](C)CN[C@H](C)[C@@H](O)[C@]1(C)O)[C@H](O[C@@H]1O[C@H](C)CC(N(C)C)[C@H]1O)[C@H]2C (some centres undefined) | 0.78 µg/mL (≈ 0.976 µM) | 1.56 µg/mL (≈ 1.95 µM) | 0.2 µg/mL (≈ 0.25 µM) |
| CC[C@H]1OC(=O)[C@H](C)[C@H]2OC3(CCN(c4cncc(Cl)n4)CC3)O[C@](C)(C[C@@H](C)CN(C)[C@H](C)[C@@H](O)[C@]1(C)O)[C@H](O[C@@H]1O[C@H](C)CC(N(C)C)[C@H]1O)[C@H]2C (some centres undefined) | 6.25 µg/mL (≈ 7.97 µM) | 1.56 µg/mL (≈ 1.99 µM) | 0.39 µg/mL (≈ 0.497 µM) |
| CC[C@H]1OC(=O)[C@H](C)[C@H]2OC3(CCN(c4ccc(C(=O)O)c(C(F)(F)F)c4)CC3)O[C@](C)(C[C@@H](C)CN(C)[C@H](C)[C@@H](O)[C@]1(C)O)[C@H](O[C@@H]1O[C@H](C)CC(N(C)C)[C@H]1O)[C@H]2C (some centres undefined) | 12.5 µg/mL (≈ 14.5 µM) | 25 µg/mL (≈ 29.1 µM) | 3.13 µg/mL (≈ 3.64 µM) |
| CC[C@H]1OC(=O)[C@H](C)[C@H]2OC3(CCN(c4cc(OC)nc(OC)n4)CC3)O[C@](C)(C[C@@H](C)CN(C)[C@H](C)[C@@H](O)[C@]1(C)O)[C@H](O[C@@H]1O[C@H](C)CC(N(C)C)[C@H]1O)[C@H]2C (some centres undefined) | 6.25 µg/mL (≈ 7.72 µM) | 1.56 µg/mL (≈ 1.93 µM) | 0.39 µg/mL (≈ 0.481 µM) |
| CC[C@H]1OC(=O)[C@H](C)[C@H]2OC3(CCN(c4nccc(C(F)(F)F)n4)CC3)O[C@](C)(C[C@@H](C)CN[C@H](C)[C@@H](O)[C@]1(C)O)[C@H](O[C@@H]1O[C@H](C)CC(N(C)C)[C@H]1O)[C@H]2C (some centres undefined) | 3.13 µg/mL (≈ 3.89 µM) | 1.56 µg/mL (≈ 1.94 µM) | 0.78 µg/mL (≈ 0.97 µM) |
| CC[C@H]1OC(=O)[C@H](C)[C@H]2OC3(CCN(c4ccc(C)nn4)CC3)O[C@](C)(C[C@@H](C)CN(C)[C@H](C)[C@@H](O)[C@]1(C)O)[C@H](O[C@@H]1O[C@H](C)CC(N(C)C)[C@H]1O)[C@H]2C (some centres undefined) | 3.13 µg/mL (≈ 4.1 µM) | 6.25 µg/mL (≈ 8.18 µM) | 0.2 µg/mL (≈ 0.262 µM) |
